Test results from patent US10793520B2, “Sulfonylaminobenzamide compound and pest control agent” (Nippon Soda Co., Ltd., priority 2016, dated 2020).

System: Mythimna separata
Experiment: Efficacy test against Mythimna separata (treated artificial feed)
Conditions: in vivo
Description: Five parts of the compound of the present invention, 93.6 parts of dimethylformamide and 1.4 parts of a polyoxyethylene alkyl aryl ether were mixed together and dissolved to obtain an emulsion (1) containing 5% of the active constituent.
The mortality rate was calculated using the following equation. Mortality rate (%)=(number of dead pests/number of test pests)×100
First, 0.8 g of an artificial feed (Insecta LFS, manufactured by Nosan Corporation) and 1 μl of the emulsion (I) were mixed thoroughly, and 0.2 g of the resulting mixture was placed in each of the treatment areas of a plastic test container (volume: 1.4 ml) to complete preparation of a test feed.
Two second-instar larvae of Mythimna separata were inoculated into each treatment area, and the test container was sealed with a plastic lid. The sealed container was placed in a temperature-controlled room at 25° C., and the mortality rate and the amount of feed consumed were determined on the fifth day. The test was repeated. Further, a test performed under the same conditions, but with the exception of excluding the compound of the present invention from the emulsion (1), was used as a control.

SMILES | mortality rate against Mythimna separata, or amount of feed consumed relative to control
O=C(Nc1ccc(C(F)(F)F)cc1[N+](=O)[O-])c1ccc(C(F)(F)F)cc1NS(=O)(=O)C(F)(F)F [a-103] | 100%, or the amount of feed consumed was 10% or less
COC(=O)c1cc(OC(F)(F)F)ccc1NC(=O)c1ccc(C(F)(F)F)cc1NS(=O)(=O)C(F)(F)F [a-109] | 100%, or the amount of feed consumed was 10% or less
COC(=O)c1cc(OC(F)(F)F)ccc1NC(=O)c1cc(F)c(F)cc1NS(=O)(=O)C(F)(F)F [a-110] | 100%, or the amount of feed consumed was 10% or less
COC(=O)c1cc(C(F)(F)F)ccc1NC(=O)c1cc(F)c(F)cc1NS(=O)(=O)C(F)(F)F [a-111] | 100%, or the amount of feed consumed was 10% or less
COC(=O)c1cc(C(F)(F)F)ccc1NC(=O)c1cc(Br)c(Cl)cc1NS(=O)(=O)C(F)(F)F [a-112] | 100%, or the amount of feed consumed was 10% or less
COC(=O)c1cc([N+](=O)[O-])ccc1NC(=O)c1cc(F)c(F)cc1NS(=O)(=O)C(F)(F)F [a-113] | 100%, or the amount of feed consumed was 10% or less
CON=Cc1cc(Cl)ccc1NC(=O)c1ccc(C(F)(F)F)cc1NS(=O)(=O)C(F)(F)F [a-115] | 100%, or the amount of feed consumed was 10% or less
O=C(Nc1cc(F)c(F)cc1F)c1ccc(C(F)(F)F)cc1NS(=O)(=O)C(F)(F)F [a-116] | 100%, or the amount of feed consumed was 10% or less
O=C(Nc1ccc(C(F)(F)F)cc1)c1ccc(-c2ccc(C(F)(F)F)nc2)cc1NS(=O)(=O)C(F)(F)F [a-118] | 100%, or the amount of feed consumed was 10% or less
O=C(Nc1ccc(C(F)(F)F)c(F)c1)c1ccc(-c2ccc(C(F)(F)F)nc2)cc1NS(=O)(=O)C(F)(F)F [a-119] | 100%, or the amount of feed consumed was 10% or less
O=C(Nc1ccc(F)c(C(F)(F)F)c1)c1ccc(-c2ccc(C(F)(F)F)nc2)cc1NS(=O)(=O)C(F)(F)F [a-120] | 100%, or the amount of feed consumed was 10% or less
O=C(Nc1ccc([N+](=O)[O-])cc1)c1ccc(-c2ccc(C(F)(F)F)nc2)cc1NS(=O)(=O)C(F)(F)F [a-121] | 100%, or the amount of feed consumed was 10% or less
O=C(Nc1ccc(C(F)(F)F)cc1)c1cc(C(F)(F)F)c(F)cc1NS(=O)(=O)C(F)(F)F [a-122] | 100%, or the amount of feed consumed was 10% or less
O=C(Nc1ccc(C(F)(F)F)cc1)c1cc(F)c(C(F)(F)F)cc1NS(=O)(=O)C(F)(F)F [a-123] | 100%, or the amount of feed consumed was 10% or less
O=C(Nc1ccc(C(F)(F)F)cc1)c1cc(Br)c(Cl)cc1NS(=O)(=O)C(F)(F)F [a-124] | 100%, or the amount of feed consumed was 10% or less
COC(=O)c1c(NC(=O)c2ccc(C(F)(F)F)cc2NS(=O)(=O)C(F)(F)F)ccc(Br)c1F [a-126] | 100%, or the amount of feed consumed was 10% or less

SMILES | mortality rate against Mythimna separata, or amount of feed consumed relative to control
O=C(Nc1ccc(C(F)(F)F)cc1)c1cc(F)c(F)cc1NS(=O)(=O)C(F)(F)F [a-127] | 100%, or the amount of feed consumed was 10% or less
O=C(Nc1ccc(C(F)(F)F)cc1)c1cc(Cl)c(Cl)cc1NS(=O)(=O)C(F)(F)F [a-128] | 100%, or the amount of feed consumed was 10% or less
O=C(Nc1ccc(C(F)(F)F)cc1)c1cc(Cl)c(F)cc1NS(=O)(=O)C(F)(F)F [a-129] | 100%, or the amount of feed consumed was 10% or less
COC(=O)c1ccc(C(F)(F)F)cc1NC(=O)c1cc(Br)c(Cl)cc1NS(=O)(=O)C(F)(F)F [a-131] | 100%, or the amount of feed consumed was 10% or less
COC(=O)c1cc(F)c(F)cc1NC(=O)c1cc(Cl)c(Br)cc1NS(=O)(=O)C(F)(F)F [a-132] | 100%, or the amount of feed consumed was 10% or less
CC(=O)c1ccc(C(F)(F)F)cc1NC(=O)c1ccc(C(F)(F)F)cc1NS(=O)(=O)C(F)(F)F [a-134] | 100%, or the amount of feed consumed was 10% or less
O=C(Nc1ccc(C(F)(F)F)cc1-n1cccn1)c1ccc(C(F)(F)F)cc1NS(=O)(=O)C(F)(F)F [a-135] | 100%, or the amount of feed consumed was 10% or less
COC(=O)c1ccc(C(F)(F)F)cc1NC(=O)c1cc(Cl)c(F)cc1NS(=O)(=O)C(F)(F)F [a-137] | 100%, or the amount of feed consumed was 10% or less
O=C(Nc1ccc(F)c(F)c1)c1ccc(C(F)(F)F)cc1NS(=O)(=O)C(F)(F)F [a-138] | 100%, or the amount of feed consumed was 10% or less
O=C(Nc1cc(C(F)(F)F)ccc1-c1nnco1)c1ccc(C(F)(F)F)cc1NS(=O)(=O)C(F)(F)F [a-139] | 100%, or the amount of feed consumed was 10% or less
O=C(Nc1ccc(F)c(C(F)(F)F)c1)c1ccc(Cl)cc1NS(=O)(=O)C(F)(F)C(F)(F)C(F)(F)C(F)(F)F [a-141] | 100%, or the amount of feed consumed was 10% or less
O=C(Nc1ccc(F)c(F)c1)c1cc(Br)c(Cl)cc1NS(=O)(=O)C(F)(F)F [a-143] | 100%, or the amount of feed consumed was 10% or less
O=C(NCc1ccc(Cl)cc1)c1ccc(C(F)(F)F)cc1NS(=O)(=O)C(F)(F)F [b-1] | 100%, or the amount of feed consumed was 10% or less
CC(C)(NC(=O)c1ccc(C(F)(F)F)cc1NS(=O)(=O)C(F)(F)F)c1ccc(Cl)cc1 [b-2] | 100%, or the amount of feed consumed was 10% or less
CC(NC(=O)c1ccc(C(F)(F)F)cc1NS(=O)(=O)C(F)(F)F)c1ncc(C(F)(F)F)cc1Cl (centres unmarked) [b-4] | 100%, or the amount of feed consumed was 10% or less
CCC(NC(=O)c1ccc(C(F)(F)F)cc1NS(=O)(=O)C(F)(F)F)c1ccc(C(F)(F)F)cn1 (centres unmarked) [b-6] | 100%, or the amount of feed consumed was 10% or less
